PubChem BioAssay (NCI)
Values after ≈ are worked out from the molar mass of the structure shown.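 The compound was tested at five concentrations on cells cultured in 96-well plates, with a 48-hour exposure period. GI50 = concentration required for 50% inhibition of growth. At the TGI there is no net growth.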

Experiments:
Experiment in all cases: DTP human tumour cell line panel, 48 h; in the data active = GI50 below about 0.43 µM; inactive = the rest
786-0 renal = tested on: 786-0 renal
A498 renal = tested on: A498 renal
A549 NSCLC = tested on: A549 NSCLC
ACHN renal = tested on: ACHN renal
BT-549 breast = tested on: BT-549 breast
CAKI-1 renal = tested on: CAKI-1 renal
CCRF-CEM leukemia = tested on: CCRF-CEM leukemia
COLO 205 colon = tested on: COLO 205 colon
DU-145 prostate = tested on: DU-145 prostate
EKVX NSCLC = tested on: EKVX NSCLC
HCC-2998 colon = tested on: HCC-2998 colon
HCT-116 colon = tested on: HCT-116 colon
HCT-15 colon = tested on: HCT-15 colon
HL-60(TB) leukemia = tested on: HL-60(TB) leukemia
HOP-92 NSCLC = tested on: HOP-92 NSCLC
HS 578T breast = tested on: HS 578T breast
HT29 colon = tested on: HT29 colon
IGROV1 ovarian = tested on: IGROV1 ovarian
K-562 leukemia = tested on: K-562 leukemia
KM12 colon = tested on: KM12 colon
LOX IMVI melanoma = tested on: LOX IMVI melanoma
M14 melanoma = tested on: M14 melanoma
MALME-3M melanoma = tested on: MALME-3M melanoma
MCF7 breast = tested on: MCF7 breast
MDA-MB-231 breast = tested on: MDA-MB-231 breast
MDA-MB-435 = tested on: MDA-MB-435
MDA-N = tested on: MDA-N
MOLT-4 leukemia = tested on: MOLT-4 leukemia
NCI-H226 lung = tested on: NCI-H226 lung
NCI-H23 lung = tested on: NCI-H23 lung
NCI-H460 lung = tested on: NCI-H460 lung
NCI-H522 lung = tested on: NCI-H522 lung
NCI/ADR-RES ovarian = tested on: NCI/ADR-RES ovarian
OVCAR-3 ovarian = tested on: OVCAR-3 ovarian
OVCAR-4 ovarian = tested on: OVCAR-4 ovarian
OVCAR-5 ovarian = tested on: OVCAR-5 ovarian
OVCAR-8 ovarian = tested on: OVCAR-8 ovarian
PC-3 prostate = tested on: PC-3 prostate
RPMI-8226 leukemia = tested on: RPMI-8226 leukemia
RXF 393 renal = tested on: RXF 393 renal
SF-268 CNS = tested on: SF-268 CNS
SF-295 CNS = tested on: SF-295 CNS
SF-539 CNS = tested on: SF-539 CNS
SK-MEL-2 melanoma = tested on: SK-MEL-2 melanoma
SK-MEL-28 melanoma = tested on: SK-MEL-28 melanoma
SK-MEL-5 melanoma = tested on: SK-MEL-5 melanoma
SK-OV-3 ovarian = tested on: SK-OV-3 ovarian
SN12C renal = tested on: SN12C renal
SNB-19 CNS = tested on: SNB-19 CNS
SNB-75 CNS = tested on: SNB-75 CNS
SR leukemia = tested on: SR leukemia
SW-620 colon = tested on: SW-620 colon
T-47D breast = tested on: T-47D breast
U251 CNS = tested on: U251 CNS
UACC-257 melanoma = tested on: UACC-257 melanoma
UACC-62 melanoma = tested on: UACC-62 melanoma
UO-31 renal = tested on: UO-31 renal
HOP-62 NSCLC = tested on: HOP-62 NSCLC
TK-10 renal = tested on: TK-10 renal

COc1cc(N(CCC#N)CCC#N)ccc1/C(N=Nc1ccc([N+](=O)[O-])cc1)=N/NC(=O)c1cc(Br)ccc1O
68.2 µg/mL: TGI (HCT-15 colon)
87 µg/mL: TGI (T-47D breast)
inactive: GI50 (786-0 renal) 46.4 µg/mL (≈ 75 µM) | GI50 (A498 renal) 86.6 µg/mL (≈ 140 µM) | GI50 (A549 NSCLC) 44.4 µg/mL (≈ 71.7 µM) | GI50 (ACHN renal) 39.6 µg/mL (≈ 63.9 µM) | GI50 (BT-549 breast) 53 µg/mL (≈ 85.6 µM) | GI50 (CAKI-1 renal) 65.9 µg/mL (≈ 106 µM) | GI50 (CCRF-CEM leukemia) 48.5 µg/mL (≈ 78.3 µM) | GI50 (COLO 205 colon) 24 µg/mL (≈ 38.8 µM) | GI50 (DU-145 prostate) 30.3 µg/mL (≈ 48.9 µM) | GI50 (EKVX NSCLC) 42.8 µg/mL (≈ 69.1 µM) | GI50 (HCC-2998 colon) 40.9 µg/mL (≈ 66 µM) | GI50 (HCT-116 colon) 29.9 µg/mL (≈ 48.2 µM) | GI50 (HCT-15 colon) 25.6 µg/mL (≈ 41.3 µM) | GI50 (HL-60(TB) leukemia) 49.2 µg/mL (≈ 79.4 µM) | GI50 (HOP-92 NSCLC) 79.6 µg/mL (≈ 129 µM) | GI50 (HS 578T breast) 69.8 µg/mL (≈ 113 µM) | GI50 (HT29 colon) 43.5 µg/mL (≈ 70.3 µM) | GI50 (IGROV1 ovarian) 26.6 µg/mL (≈ 42.9 µM) | GI50 (K-562 leukemia) 63.1 µg/mL (≈ 102 µM) | GI50 (KM12 colon) 28.5 µg/mL (≈ 46 µM) | GI50 (LOX IMVI melanoma) 29 µg/mL (≈ 46.8 µM) | GI50 (M14 melanoma) 44.5 µg/mL (≈ 71.8 µM) | GI50 (MALME-3M melanoma) 44.2 µg/mL (≈ 71.4 µM) | GI50 (MCF7 breast) 42.3 µg/mL (≈ 68.3 µM) | GI50 (MDA-MB-231 breast) 35.7 µg/mL (≈ 57.7 µM) | GI50 (MDA-MB-435) 52.2 µg/mL (≈ 84.3 µM) | GI50 (MDA-N) 43.8 µg/mL (≈ 70.7 µM) | GI50 (MOLT-4 leukemia) 42.6 µg/mL (≈ 68.7 µM) | GI50 (NCI-H226 lung) 5.47 µg/mL (≈ 8.83 µM) | GI50 (NCI-H23 lung) 51.2 µg/mL (≈ 82.7 µM) | GI50 (NCI-H460 lung) 33.8 µg/mL (≈ 54.5 µM) | GI50 (NCI-H522 lung) 53.4 µg/mL (≈ 86.2 µM) | GI50 (NCI/ADR-RES ovarian) 40.1 µg/mL (≈ 64.7 µM) | GI50 (OVCAR-3 ovarian) 30.9 µg/mL (≈ 49.9 µM) | GI50 (OVCAR-4 ovarian) 21.5 µg/mL (≈ 34.7 µM) | GI50 (OVCAR-5 ovarian) 50 µg/mL (≈ 80.8 µM) | GI50 (OVCAR-8 ovarian) 52.8 µg/mL (≈ 85.2 µM) | GI50 (PC-3 prostate) 37 µg/mL (≈ 59.7 µM) | GI50 (RPMI-8226 leukemia) 38.2 µg/mL (≈ 61.7 µM) | GI50 (RXF 393 renal) 30.3 µg/mL (≈ 48.9 µM) | GI50 (SF-268 CNS) 19.3 µg/mL (≈ 31.2 µM) | GI50 (SF-295 CNS) 29.9 µg/mL (≈ 48.3 µM) | GI50 (SF-539 CNS) 33.2 µg/mL (≈ 53.6 µM) | GI50 (SK-MEL-2 melanoma) 44.2 µg/mL (≈ 71.4 µM) | GI50 (SK-MEL-28 melanoma) 80.6 µg/mL (≈ 130 µM) | GI50 (SK-MEL-5 melanoma) 26.3 µg/mL (≈ 42.4 µM) | GI50 (SK-OV-3 ovarian) 37.3 µg/mL (≈ 60.1 µM) | GI50 (SN12C renal) 53.4 µg/mL (≈ 86.2 µM) | GI50 (SNB-19 CNS) 58.5 µg/mL (≈ 94.4 µM) | GI50 (SNB-75 CNS) 28.4 µg/mL (≈ 45.9 µM) | GI50 (SR leukemia) 44.8 µg/mL (≈ 72.3 µM) | GI50 (SW-620 colon) 57.4 µg/mL (≈ 92.7 µM) | GI50 (T-47D breast) 34.6 µg/mL (≈ 55.9 µM) | GI50 (U251 CNS) 57.3 µg/mL (≈ 92.5 µM) | GI50 (UACC-257 melanoma) 52.3 µg/mL (≈ 84.4 µM) | GI50 (UACC-62 melanoma) 40.9 µg/mL (≈ 66.1 µM) | GI50 (UO-31 renal) 48.4 µg/mL (≈ 78.1 µM)
122 µg/mL: TGI (SF-539 CNS)
96.1 µg/mL: TGI (MALME-3M melanoma)
69.6 µg/mL: TGI (SF-295 CNS)
45.9 µg/mL: TGI (COLO 205 colon)
83.6 µg/mL: TGI (SNB-75 CNS)
71 µg/mL: TGI (KM12 colon)
128 µg/mL: TGI (MOLT-4 leukemia)
85.2 µg/mL: TGI (MDA-MB-231 breast)
116 µg/mL: TGI (NCI/ADR-RES ovarian)
62.4 µg/mL: TGI (OVCAR-4 ovarian)
83.8 µg/mL: TGI (RXF 393 renal)
70.9 µg/mL: TGI (DU-145 prostate)
140 µg/mL: TGI (A549 NSCLC)
107 µg/mL: TGI (NCI-H460 lung)
> 150 µg/mL: TGI (786-0 renal) | TGI (A498 renal) | TGI (BT-549 breast) | TGI (CAKI-1 renal) | TGI (CCRF-CEM leukemia) | TGI (EKVX NSCLC) | TGI (HL-60(TB) leukemia) | TGI (HOP-92 NSCLC) | TGI (HS 578T breast) | TGI (K-562 leukemia) | TGI (MCF7 breast) | TGI (MDA-MB-435) | TGI (NCI-H23 lung) | TGI (NCI-H522 lung) | TGI (OVCAR-5 ovarian) | TGI (OVCAR-8 ovarian) | TGI (PC-3 prostate) | TGI (RPMI-8226 leukemia) | TGI (SK-MEL-2 melanoma) | TGI (SK-MEL-28 melanoma) | TGI (SK-OV-3 ovarian) | TGI (SN12C renal) | TGI (SNB-19 CNS) | TGI (SR leukemia) | TGI (SW-620 colon) | TGI (U251 CNS) | TGI (UACC-257 melanoma) | TGI (UACC-62 melanoma) | TGI (UO-31 renal)
76.2 µg/mL: TGI (OVCAR-3 ovarian)
64.3 µg/mL: TGI (NCI-H226 lung)
121 µg/mL: TGI (IGROV1 ovarian)
148 µg/mL: TGI (M14 melanoma)
46.9 µg/mL: TGI (SK-MEL-5 melanoma)
91.9 µg/mL: TGI (HCT-116 colon)
110 µg/mL: TGI (LOX IMVI melanoma)
78.7 µg/mL: TGI (HCC-2998 colon) | TGI (SF-268 CNS)
126 µg/mL: TGI (MDA-N)
105 µg/mL: TGI (HT29 colon)
131 µg/mL: TGI (ACHN renal)

O=C(O)CC(CC(=O)O)C(=O)O
> 100 µM: TGI (786-0 renal) | TGI (A498 renal) | TGI (A549 NSCLC) | TGI (ACHN renal) | TGI (BT-549 breast) | TGI (CAKI-1 renal) | TGI (CCRF-CEM leukemia) | TGI (COLO 205 colon) | TGI (DU-145 prostate) | TGI (EKVX NSCLC) | TGI (HCC-2998 colon) | TGI (HCT-116 colon) | TGI (HCT-15 colon) | TGI (HL-60(TB) leukemia) | TGI (HOP-62 NSCLC) | TGI (HOP-92 NSCLC) | TGI (HS 578T breast) | TGI (HT29 colon) | TGI (IGROV1 ovarian) | TGI (K-562 leukemia) | TGI (KM12 colon) | TGI (LOX IMVI melanoma) | TGI (M14 melanoma) | TGI (MALME-3M melanoma) | TGI (MCF7 breast) | TGI (MDA-MB-231 breast) | TGI (MDA-MB-435) | TGI (MDA-N) | TGI (MOLT-4 leukemia) | TGI (NCI-H226 lung) | TGI (NCI-H23 lung) | TGI (NCI-H460 lung) | TGI (NCI-H522 lung) | TGI (NCI/ADR-RES ovarian) | TGI (OVCAR-3 ovarian) | TGI (OVCAR-4 ovarian) | TGI (OVCAR-5 ovarian) | TGI (OVCAR-8 ovarian) | TGI (PC-3 prostate) | TGI (RPMI-8226 leukemia) | TGI (RXF 393 renal) | TGI (SF-268 CNS) | TGI (SF-295 CNS) | TGI (SF-539 CNS) | TGI (SK-MEL-2 melanoma) | TGI (SK-MEL-28 melanoma) | TGI (SK-MEL-5 melanoma) | TGI (SK-OV-3 ovarian) | TGI (SN12C renal) | TGI (SNB-19 CNS) | TGI (SNB-75 CNS) | TGI (SR leukemia) | TGI (SW-620 colon) | TGI (T-47D breast) | TGI (TK-10 renal) | TGI (U251 CNS) | TGI (UACC-257 melanoma) | TGI (UACC-62 melanoma) | TGI (UO-31 renal)
